In ChEMBL document CHEMBL3243944, “Synthesis of spiro[isobenzofuran-1(3H),4'-piperidines] as potential central nervous system agents. 2. Compounds containing a heteroatom attached to nitrogen” (1977):

System: Mus musculus
Assay: Antitetrabenazine activity in ip dosed CD1 mouse assessed as inhibition of tetrabenazine-induced ptosis challenged with tetrabenazine after 30 mins later and after another 30 mins of drug treatment
Type: functional
Details: 0.5 h

SMILES	ED50
ON1CCC2(CC1)OC(c1ccc(F)cc1)c1ccccc12 (stereo unspecified)	4 mg/kg
CNCCCN1c2ccccc2CCc2ccccc21 [DESIPRAMINE]	0.8 mg/kg
c1ccc(C2OC3(CCNCC3)c3ccccc32)cc1 (stereo unspecified)	0.5 mg/kg
O=NN1CCC2(CC1)OC(c1ccccc1)c1ccccc12 (stereo unspecified)	> 25 mg/kg
COc1ccc2c(c1)C1(CCN(O)CC1)OC2c1ccccc1 (stereo unspecified)	4.7 mg/kg
CC(C)NN1CCC2(CC1)OC(c1ccccc1)c1ccccc12 (stereo unspecified)	> 25 mg/kg
CN(C)CCCN1c2ccccc2CCc2ccccc21 [IMIPRAMINE]	1.3 mg/kg
NN1CCC2(CC1)OC(c1ccccc1)c1ccccc12 (stereo unspecified)	6.8 mg/kg
COc1ccc(C2OC3(CCN(O)CC3)c3ccccc32)cc1 (stereo unspecified)	3.5 mg/kg
ON1CCC2(CC1)OC(c1ccccc1)c1ccccc12 (stereo unspecified)	1.4 mg/kg
O=C(ON1CCC2(CC1)OC(c1ccccc1)c1ccccc12)c1ccccc1 (stereo unspecified)	> 25 mg/kg
